Our source for the Ki values is patent US6365632B1, “Treatment of orthostatic hypotension” (Knoll Pharmaceuticals Company, priority 1999, dated 2002).

Broadly, the Ki is a measure of affinity in units of concentration, obtained from inhibition or displacement. A high value points to lower affinity.

Assay [1] deals with [3H] Noradenaline reuptake in rat brain tissue. Nature of the assay: in vitro [3H]noradrenaline reuptake inhibition in rat brain tissue. Type of assay: biochemical. The note with it: means of ≧3 separate determinations.
Assay [2] concerns the target [3H] Dopamine reuptake in rat brain tissue. Kind of assay: in vitro [3H]dopamine reuptake inhibition in rat brain tissue. Type of assay: biochemical. The note with it: means of ≧3 separate determinations.

Turning to `CC(NC(C)(C)C)C(=O)c1cccc(Cl)c1` (stereo not shown) [Bupropion], the Ki turned out to be 2590 nM in assay [1] and 409 nM in assay [2].
On the same counts, the results for `COc1ccc(C(CN(C)C)C2(O)CCCCC2)cc1` (stereo not shown) [Venlafaxine] are 196 nM and 2590 nM.
